Measurements taken from patent US10807992B2, “Single enantiomer antiparasitic compounds” (priority 2017, dated 2020).
Read-outs that look alike come from different tables or passages of the source.

What was measured:
Ixodes scapularis = test: In vitro contact activity against adult ticks (coated vial), I. scapularis; details: for mortality at 0.006 µM: Trial 1, dose 0.006 μM; for mortality at 0.024 µM: Trial 1, dose 0.024 μM; for mortality at 0.098 µM: Trial 1, dose 0.098 μM; for mortality at 0.39 µM: Trial 1, dose 0.39 μM; for mortality at 1.56 µM: Trial 1, dose 1.56 μM; for mortality at 6.25 µM: Trial 1, dose 6.25 μM; for mortality at 25 µM: Trial 1, dose 25 μM; for mortality at 100 µM: Trial 1, dose 100 μM
Experimental: Rhipicephalus sanguineus, Dermacentor variabilis, Amblyomma americanum, (Ecto Services, Inc., Henderson, N.C.) and Ixodes scapularis (Oklahoma State University, Stillwater, Okla.) aged between 2-4 weeks post molt were held in an environmental chamber at 24° C., 80% humidity with 12-hour light/dark cycles.
For tick assays, vial caps were pre-drilled with a single hole in the center of each cap to allow air exchange. A filter paper (Whatman Grade 540 2.1 cm) was placed in the lid of each vial. An aliquot from each compound stock was added to an acetone/triton solution to achieve the desired top doses for the study. Serial dilutions were conducted from the top dose (i.e. 100 ppm) to achieve the desired titration range for EC50 and EC90 determination. For R. sanguineus, D. variabilis, and A. americanum, the final DMSO concentration in each test vial was 0.5%. For I. scapularis, compounds were solubilized directly in an acetone/triton solution due to I. scapularis' sensitivity to DMSO. A 459 μL aliquot of each compound formulation was transferred to a vial containing a Whatman Grade 540 2.1 cm filter paper. Vials were immediately placed on an unheated roller unit to allow for an even coating of the vial walls. After vials were coated, 41 μL of each compound formulation was added to the filter paper embedded in each vial cap. Each cap was allowed to dry. The vials were loosely capped and allowed to dry for a minimum of four hours in a chemical fume hood.
(§1) Compounds tested were: the C1 racemate, C1 (R) enantiomer, and the C1 (S) enantiomer. For Trial 3, the C1 (R) enantiomer and the C1 (S) enantiomer were further chiral purified to achieve >99% purity.
Ten adult ticks were added to each vial and held at 24° C., 80% humidity with 12-hour light/dark cycles. Adult ticks were assessed for percent mortality at various time points between 2 hours and 48 hours post infestation. Ticks were stimulated on a heated roller unit and evaluated. Ticks showing no movement, or very slow and uncoordinated movement were noted as dead.

Aedes aegypti = test: In vitro ingestion activity against adult mosquitoes (artificial feeding, bovine blood); details: read-out: Mortality % R1 + R2
Experimental: Aedes aegypti (Louisiana Biologicals Inc., New Orleans, La.) eggs were allowed to hatch, close, and age between 3-5 days in an environmental chamber at 26° C., 80% humidity with light/dark cycles.
For mosquito ingestion tests, serial dilutions of the compound stock were performed using DMSO to achieve the desired range for EC50 and EC90 determination. An aliquot of each compound dilution was added to organic bovine blood with a final DMSO concentration of 0.5% and placed in a temperature-controlled artificial feeding container.
as §1
For both contact and ingestion assays, five female Aedes aegypti adults were added to each vial or cage. The test vials for contact assays were held in an environmental chamber at 24° C., 80% humidity with light/dark cycles (12 hours each). The cages for mosquito ingestion assays were held in a temperature-controlled artificial feeding apparatus to allow continual access to organic bovine blood containing the desired concentration of compound. Fresh aliquots of compound-spiked bovine blood were provided daily for the duration of the study.
Assessment of mortality/knockdown was performed at various time points between 30 minutes and 24 hours post infestation. Mosquitoes showing no movement or mosquitoes that were knocked down were noted as dead. Results from trial 1 and trial 2 contact assays are shown in Tables 12 and 13, respectively and the results from trial 3 mosquito ingestion assay is shown in table 14.
For the mosquito contact and ingestion assays, each replicate contained 5 mosquitoes. For ease of calculation, the two replicates were added to equal a total of 10 mosquitoes.

## O=C(CC(F)(F)F)N1CC2(C1)OCc1cc(C3=NS[C@@](c4cc(Cl)c(F)c(Cl)c4)(C(F)(F)F)C3)ccc12 [C1 (S) enantiomer, (S)-1-[6-[5-(3,5-dichloro-4-fluoro-phenyl)-5-(trifluoromethyl)-4H-isothiazol-3-yl]spiro[1H-isobenzofuran-3,3′-azetidine]-1′-yl]-3,3,3-trifluoro-propan-1-one]
Ixodes scapularis; 2 h, Rep1
  mortality at 0.006 µM: 0%
  mortality at 0.024 µM: 0%
  mortality at 0.098 µM: 0%
  mortality at 0.39 µM: 0%
  mortality at 1.56 µM: 0%
  mortality at 6.25 µM: 0%
  mortality at 25 µM: 0%
  mortality at 100 µM: 0%
Ixodes scapularis; 2 h, Rep2
  mortality at 0.006 µM: 0%
  mortality at 0.024 µM: 0%
  mortality at 0.098 µM: 0%
  mortality at 0.39 µM: 0%
  mortality at 1.56 µM: 0%
  mortality at 6.25 µM: 0%
  mortality at 25 µM: 0%
  mortality at 100 µM: 0%
Ixodes scapularis; 6 h, Rep1
  mortality at 0.006 µM: 0%
  mortality at 0.024 µM: 0%
  mortality at 0.098 µM: 0%
  mortality at 0.39 µM: 0%
  mortality at 1.56 µM: 0%
  mortality at 6.25 µM: 0%
  mortality at 25 µM: 40%
  mortality at 100 µM: 100%
Ixodes scapularis; 6 h, Rep2
  mortality at 0.006 µM: 0%
  mortality at 0.024 µM: 0%
  mortality at 0.098 µM: 0%
  mortality at 0.39 µM: 0%
  mortality at 1.56 µM: 0%
  mortality at 6.25 µM: 0%
  mortality at 25 µM: 40%
  mortality at 100 µM: 100%
Ixodes scapularis; 12 h, Rep1
  mortality at 0.006 µM: 0%
  mortality at 0.024 µM: 0%
  mortality at 0.098 µM: 0%
  mortality at 0.39 µM: 0%
  mortality at 1.56 µM: 0%
  mortality at 6.25 µM: 40%
  mortality at 25 µM: 100%
  mortality at 100 µM: 100%
Ixodes scapularis; 12 h, Rep2
  mortality at 0.006 µM: 0%
  mortality at 0.024 µM: 0%
  mortality at 0.098 µM: 0%
  mortality at 0.39 µM: 0%
  mortality at 1.56 µM: 0%
  mortality at 6.25 µM: 50%
  mortality at 25 µM: 90%
  mortality at 100 µM: 100%
Ixodes scapularis; 24 h, Rep1
  mortality at 0.006 µM: 0%
  mortality at 0.024 µM: 0%
  mortality at 0.098 µM: 0%
  mortality at 0.39 µM: 0%
  mortality at 1.56 µM: 50%
  mortality at 6.25 µM: 100%
  mortality at 25 µM: 100%
  mortality at 100 µM: 100%
Ixodes scapularis; 24 h, Rep2
  mortality at 0.006 µM: 0%
  mortality at 0.024 µM: 0%
  mortality at 0.098 µM: 0%
  mortality at 0.39 µM: 0%
  mortality at 1.56 µM: 60%
  mortality at 6.25 µM: 90%
  mortality at 25 µM: 100%
  mortality at 100 µM: 100%
Ixodes scapularis; 48 h, Rep1
  mortality at 0.006 µM: 0%
  mortality at 0.024 µM: 0%
  mortality at 0.098 µM: 10%
  mortality at 0.39 µM: 40%
  mortality at 1.56 µM: 90%
  mortality at 6.25 µM: 100%
  mortality at 25 µM: 100%
  mortality at 100 µM: 100%
Ixodes scapularis; 48 h, Rep2
  mortality at 0.006 µM: 10%
  mortality at 0.024 µM: 0%
  mortality at 0.098 µM: 10%
  mortality at 0.39 µM: 40%
  mortality at 1.56 µM: 100%
  mortality at 6.25 µM: 100%
  mortality at 25 µM: 100%
  mortality at 100 µM: 100%
Aedes aegypti; 24 h
  mortality at 0.049 ppm: 70%
  mortality at 0.2 ppm: 100%
  mortality at 0.78 ppm: 100%
  mortality at 3.125 ppm: 100%
  mortality at 12.5 ppm: 100%
  mortality at 50 ppm: 100%
Aedes aegypti
  mortality at 0.049 ppm: 0%
  mortality at 0.2 ppm: 44.4%
  mortality at 0.78 ppm: 100%
  mortality at 3.125 ppm: 100%
  mortality at 12.5 ppm: 100%
  mortality at 50 ppm: 100%
